# Data taken from article PMC10096180, “Half-Sandwich Type Platinum-Group Metal Complexes of C-Glucosaminyl Azines: Synthesis and Antineoplastic and Antimicrobial Activities” (Molecules, 2023).
# Read-outs that look alike come from different tables or passages of the source.
# What was measured:
# A2780 cells [1] = experiment: MTT reduction assay, early toxicity, 4 h treatment; assay type: cell-based
# How it was run: (§1)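 Cells plated the day before, exposed to compounds for 4 h, then MTT 0.5 mg/mL for 40–60 min at 37 °C; reduced dye dissolved in DMSO, read at 540 nm relative to vehicle wells. IC50 by four-parameter fit; otherwise % inhibition at 100 μM.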
# [2] = system: primary human dermal fibroblasts; experiment: MTT reduction assay, early toxicity, 4 h treatment; assay type: cell-based; settings: up to 100 μM
# How it was run: as §1
# A2780 cells [3] = experiment: SRB binding assay, cytostasis, 48 h treatment; assay type: cell-based; settings: for A2780 SRB Max Inhibition: up to 100 μM, ND = not detectable
# How it was run: (§2)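 Ovarian cancer A2780 cells and primary human dermal fibroblasts treated 48 h, TCA-fixed, SRB-stained, absorbance at 540 nm relative to vehicle. IC50 from four-parameter fit when a plateau was reached or inhibition exceeded 90%; otherwise percent inhibition at 100 μM.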
# [4] = system: primary human dermal fibroblasts; experiment: SRB binding assay, cytostasis, 48 h treatment; assay type: cell-based; settings: for Fibroblast SRB Max Inhibition: up to 100 μM, ND = not detectable
# How it was run: as §2
# [5] = system: Enterococcus faecalis (ATCC29212); experiment: Broth microdilution MIC, reference strain; assay type: cell-based; settings: 24 h, tested range 0.08–40 μM, read-out: MIC E. faecalis ATCC 29,212
# Method: (§3) The reference strains of Staphylococcus aureus (ATCC29213) and Enterococcus faecalis (ATCC29212) were purchased from the ATCC (Manassas, VA, USA).
# (§4) Microdilution experiments were performed according to the standards of EUCAST [85]. The bacterial isolates to be tested were grown on Mueller–Hinton agar plates. The inoculum density of bacteria was set at 5.0 × 10^5 CFU/mL in microtiter plates in a final volume of 200 μL Mueller–Hinton broth. The tested concentration range was 0.08–40 μM (10 concentrations, twofold serial dilutions), and a drug-free growth control and an inoculum-free negative control were included. The inoculated plates were incubated for 24 h at 37 °C, then visually assessed. Minimum inhibitory concentration (MIC) was defined as the lowest concentration with a 50%≤ inhibitory effect compared to the growth control. All experiments were performed at least twice in duplicate.
# [6] = system: Staphylococcus aureus (ATCC29213); experiment: Broth microdilution MIC, reference strain; assay type: cell-based; settings: 0.08–40 μM, read-out: MIC S. aureus ATCC 29213
# Method: as §3, §4
# [7] = system: vancomycin-resistant Enterococcus (VRE) clinical isolates; experiment: Broth microdilution MIC, clinical VRE isolates; assay type: cell-based, E. faecium; settings: 24 h, 0.08–40 μM
# Method: (§5) We used a set of clinical isolates of S. aureus and E. faecium that were collected at the Medical Center of the University of Debrecen (Hungary) between 1 January 2018. and 31 December 2020. The clinical isolates were identified using a Microflex MALDI-TOF mass spectrometer (Bruker, Billerica, MA, USA). The antibiotic susceptibility of the isolates was tested following the European Committee on Antimicrobial Susceptibility Testing (EUCAST) guidelines, which were valid at the time of collection.
# as §4
# [8] = system: methicillin-resistant Staphylococcus aureus (MRSA) clinical isolates; experiment: Broth microdilution MIC, clinical MRSA isolates; assay type: cell-based; settings: 24 h, 0.08–40 μM
# Method: as §5, §4
# [9] = Distribution coefficient (logD), n-octanol-PBS; assay type: physicochemical; settings: n-octanol-PBS (pH = 7.4) system
# Method: The logD values of the newly synthesized complexes were determined according to a procedure described in our previous publications. page 64: Ir-7b +1.17 Rh-7b +1.41 Ru-7c +1.31 Os-7c +1.59 Ir-7c +1.40 Rh-7c +1.13 Ru-7d +1.26 Os-7d +1.42 Ir-7d +1.30 Rh-7d +1.04 Ru-7e +2.22 Os-7e +2.21 Ir-7e +1.39 Rh-7e +1.66 *logD was determined in an n-octanol-PBS (pH = 7.4) system 64 (14 pictures or pasted objects on this page, not shown here)
# [10] = inhibition at maximum concentration (100 μM) where no plateau, ND = not detectable
# [11] = clinical isolate 25,051 VRE, read-out: MIC 25,051 VRE
# [12] = clinical isolate 25,498 VRE, read-out: MIC 25,498 VRE
# [13] = clinical isolate 27,085 VRE, read-out: MIC 27,085 VRE
# [14] = clinical isolate 20,426 MRSA, read-out: MIC 20,426 MRSA
# [15] = clinical isolate 24,035 MRSA, read-out: MIC 24,035 MRSA
# [16] = clinical isolate 24,268 MRSA, read-out: MIC 24,268 MRSA
# [17] = clinical isolate 24,272 MRSA, read-out: MIC 24,272 MRSA
# [18] = clinical isolate 24,328 MRSA, read-out: MIC 24,328 MRSA
# [19] = clinical isolate 24,408 MRSA, read-out: MIC 24,408 MRSA
SMILES,Fibroblast MTT Max Inhibition [2],A2780 SRB Max Inhibition (A2780 cells [3]),Fibroblast SRB Max Inhibition [4],A2780 MTT Max Inhibition (A2780 cells [1]; [10]),IC50 (A2780 cells [3]),logD [9],MIC [5],MIC ([6]; 24 h),"MIC [7, 11]","MIC [7, 12]","MIC [7, 13]","MIC [8, 14]","MIC [8, 15]","MIC [8, 16]","MIC [8, 17]","MIC [8, 18]","MIC [8, 19]",further results
"N[C@@H]1[C@@H](OC(=O)c2ccccc2)[C@H](OC(=O)c2ccccc2)[C@@H](COC(=O)c2ccccc2)O[C@H]1c1ccccn1 [Complex 7a, 2-(2′-Amino-2′-deoxy-3′,4′,6′-tri-O-benzoyl-β-D-glucopyranosyl)pyridine]",27.02%,76.24%,26.00%,,,,,,,,,,,,,,,"inhibition at 100 µM (A2780 cells [1]; Homo sapiens, inhibition at maximum concentration (100 μM) where no plateau, ND = not detectable, read-out: A2780 MTT Max Inhibition): 18.6%; MIC ([5]; Enterococcus faecalis): > 40 µM; MIC ([6]; Staphylococcus aureus, ATCC29213, 24 h): > 40 µM; MIC ([7]; Enterococcus, clinical isolate 25,051 VRE, read-out: MIC 25,051 VRE): > 40 µM; MIC ([7]; Enterococcus, clinical isolate 25,498 VRE, read-out: MIC 25,498 VRE): > 40 µM; MIC ([7]; Enterococcus, clinical isolate 27,085 VRE, read-out: MIC 27,085 VRE): > 40 µM; MIC ([8]; Staphylococcus aureus, clinical isolate 20,426 MRSA, read-out: MIC 20,426 MRSA): > 40 µM; MIC ([8]; Staphylococcus aureus, clinical isolate 24,035 MRSA, read-out: MIC 24,035 MRSA): > 40 µM; MIC ([8]; Staphylococcus aureus, clinical isolate 24,268 MRSA, read-out: MIC 24,268 MRSA): > 40 µM; MIC ([8]; Staphylococcus aureus, clinical isolate 24,272 MRSA, read-out: MIC 24,272 MRSA): > 40 µM; MIC ([8]; Staphylococcus aureus, clinical isolate 24,328 MRSA, read-out: MIC 24,328 MRSA): > 40 µM; MIC ([8]; Staphylococcus aureus, clinical isolate 24,408 MRSA, read-out: MIC 24,408 MRSA): > 40 µM"
Cc1c(C)c(C)[c-](C)c1C.F[P-](F)(F)(F)(F)F.N[C@@H]1[C@@H](OCc2ccccc2)[C@H](OCc2ccccc2)[C@@H](COCc2ccccc2)O[C@H]1c1ccccn1.[Cl][Ir+2] [Ir-3a],,>90%,,82.71%,1.69 µM,3.18,20 µM,20 µM,10 µM,10 µM,10 µM,10 µM,20 µM,5 µM,10 µM,10 µM,10 µM,IC50 ([4]; read-out: Fibroblast SRB IC50): 14.1 µM
Cc1c(C)c(C)[c-](C)c1C.F[P-](F)(F)(F)(F)F.N[C@@H]1[C@@H](OC(=O)c2ccccc2)[C@H](OC(=O)c2ccccc2)[C@@H](COC(=O)c2ccccc2)O[C@H]1c1ccccn1.[Cl][Rh+2] [Rh-7a],27.02%,>90%,32.56%,35.97%,18.2 µM,1.20,>40 µM,>40 µM,>40 µM,>40 µM,>40 µM,>40 µM,>40 µM,>40 µM,>40 µM,>40 µM,>40 µM,
Cc1ccc(C(C)C)cc1.F[P-](F)(F)(F)(F)F.N[C@@H]1[C@@H](OCc2ccccc2)[C@H](OCc2ccccc2)[C@@H](COCc2ccccc2)O[C@H]1c1cnccn1.[Cl][Ru+] [Ru-3d],80.31%,>90%,,>90%,3.77 µM,2.06,20 µM,20 µM,20 µM,20 µM,20 µM,20 µM,20 µM,20 µM,20 µM,20 µM,20 µM,IC50 (A2780 cells [1]): 19.3 µM
Cc1ccc(C(C)C)cc1.F[P-](F)(F)(F)(F)F.NC1C(c2cccnn2)OC(COC(=O)c2ccccc2)C(OC(=O)c2ccccc2)C1OC(=O)c1ccccc1.[Cl][Ru+] (mixture of isomers) [Ru-7b],47.04%,>90%,,68.22%,17.8 µM,1.39,10 µM,20 µM,10 µM,10 µM,10 µM,10 µM,10 µM,10 µM,20 µM,20 µM,10 µM,
Cc1ccc(C(C)C)cc1.F[P-](F)(F)(F)(F)F.NC1C(c2cccnn2)OC(COC(=O)c2ccccc2)C(OC(=O)c2ccccc2)C1OC(=O)c1ccccc1.[Cl][Os+] (mixture of isomers) [Os-7b],27.22%,>90%,,53.39%,56.4 µM,1.32,10 µM,20 µM,10 µM,10 µM,10 µM,10 µM,10 µM,10 µM,10 µM,20 µM,10 µM,
